Reference: patent publication US6872850B2, “Small molecule inhibitors of secretion of proteins encoded by ARE-mRNAs” (Message Pharmaceuticals, priority 2001, dated 2005)
Entries after “also recorded” stand apart in the source; their conditions may differ. Structures can show the parent of a compound that is named as a salt.

What was measured:
[1] = test system: control cell line 3B (Raw 264.7, CMV-luciferase); assay: luciferase reporter assay, control 3B cell line (luciferase without 3′ UTR of TNFα); type: cell-based, mouse
Description: The candidate compounds were tested in a high-throughput, cell-based luciferase reporter assay. For this assay, a commercially available mouse macrophage Raw 264.7 cell line was stably transfected with a construct containing the CMV promoter operably linked to the luciferase gene which was modified using standard molecular biology techniques to contain the entire 3′ UTR of the TNFα gene. This 3′ UTR is important for the stability and translation of TNFα in cells. To control for effects of candidate compounds that are not specific for TNFα, a control cell line, called “3B,” was generated by stably transfecting the 264.7 cell line with a commercially available construct containing the luciferase gene (without the addition of the heterologous 3′ UTR of the TNFα gene) under the regulation of the CMV promoter.
Both the 3B and 5B cell lines were incubated in the presence of 10 μM of a candidate compound for one hour. Then, lipopolysaccharide (LPS) was added to stimulate TNFα secretion. Luciferase activity was measured by determining the luminescence intensity due to the reaction of lucifern, ATP, Mg^2+, and molecular O2 (see, for example, Ausubel et al., supra). The luciferase activity in a cell incubated with a candidate compound was reported as a percentage of the luciferase activity for the corresponding cell incubated with DMSO vehicle only. […]

[2] = test system: 3′ UTR of the TNFα gene; assay: cell-based luciferase reporter assay, 5B cell line (luciferase gene with entire 3′ UTR of the TNFα gene); set-up: species or system mouse; details: for Luciferase 5B (% of DMSO control) / Luciferase 5B/3B (% of DMSO control 5B)/(% of DMSO control 3B): 10 μM compound; for Luciferase 5B (% of DMSO control): 1 h, then LPS, 5B cell line; for Luciferase 5B/3B (% of DMSO control 5B)/(% of DMSO control 3B): ratio of 5B to control 3B cell line
[3] = test system: TNFα; assay: ELISA of TNFα secreted into the media after LPS; type: cell-based; details: for effect on amount of secreted TNFα (direct TNFα secretion assay), in words: after LPS stimulation; for TNFα Secretion (% of DMSO control): 10 μM compound, 1 h, then LPS
Summary of the method: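 Candidate compounds were tested directly for their ability to lower the amount of TNFα that cells secrete. A standard ELISA quantified TNFα released into the culture media. Each compound's effect is given as a percentage of the TNFα secreted by control cells that received only DMSO vehicle.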

For `C/C(=N\NC(=N)N)c1ccc(C(=O)N[C@@H](Cc2ccccc2)C(=O)NCCNC(=O)[C@H](Cc2ccccc2)NC(=O)c2ccc(/C(C)=N/NC(=N)N)cc2)cc1` [MES 10094, (E,E)-Bisguanylhydrazone of 1-[(S)-N-(4-Acetylbenzoyl)-2-amino-3-phenylpro-panoyl]-4-[(S)-N-(4-acetylbenzoyl)-2-amino-3-phenylpropanoyl]-1,4-diaza-butane bis hydrochloride], which “effect on luciferase activity in the 3B control cell line, in words” value [1] is on record?
The value was “only weakly inhibited”.

And the “effect on luciferase activity in the 5B cell line (luciferase assay), in words” value [2]?
The value was “strongly inhibited”.

And the “effect on amount of secreted TNFα (direct TNFα secretion assay), in words” value [3]?
Its value is “inhibited TNFα secretion”.

How did the “Luciferase 5B (% of DMSO control)” value [2] turn out when `C/C(=N\NC(=N)N)c1cccc(C(=O)N[C@@H](CC(C)C)C(=O)N2CCN(C(=O)[C@H](Cc3ccccc3)NCc3ccc(-c4ccccc4)cc3)CC2)c1` [MES 10244] was run?
The value was 46 % of DMSO control.

What about the “Luciferase 5B/3B (% of DMSO control 5B)/(% of DMSO control 3B)” value [2] of the same compound?
The value was 36 (% of DMSO control 5B)/(% of D.

What about the “TNFα Secretion (% of DMSO control)” value [3] of the same compound?
The value was 48 % of DMSO control.

Which “Luciferase 5B (% of DMSO control)” value [2] does the source give for `COc1ccc(CC(NC(=O)c2ccc(C(=NNC(=N)N)c3ccccc3)cc2)C(=O)N2CCN(C(=O)C(CC(C)C)NC(=O)c3ccc(C(=NNC(=N)N)c4ccccc4)cc3)CC2)cc1` (mixture of isomers) [MES 10237] here?
Its value is 20 % of DMSO control.

What about the “Luciferase 5B/3B (% of DMSO control 5B)/(% of DMSO control 3B)” value [2] of the same compound?
The value was 27 (% of DMSO control 5B)/(% of DMSO control 3B).

And the “TNFα Secretion (% of DMSO control)” value [3]?
The value was 39 % of DMSO control.

What does the source list for “(E,E)-Bisguanylhydrazone of 1-[(S)-N-(4-benzoylbenzoyl)-2-amino-3-phenylpropanoyl]-4-[(2S)-N-(3-acetylbenzoyl)-2-amino-4-methylpentanoyl]-1,4-piperazine bis trifluoroacetate [MES 10171]”?
Luciferase 5B (% of DMSO control) [2]: 20 % of DMSO control; Luciferase 5B/3B (% of DMSO control 5B)/(% of DMSO control 3B) [2]: 24 (% of DMSO control 5B)/(% of DMSO control 3B); TNFα Secretion (% of DMSO control) [3]: 57 % of DMSO control

What does the source list for `C/C(=N\NC(=N)N)c1cccc(C(=O)N[C@@H](CC(C)C)C(=O)N2CCN(C(=O)[C@H](Cc3ccccc3)NC(=O)c3ccc(OCc4ccccc4)cc3)CC2)c1` [MES 10307]?
Luciferase 5B (% of DMSO control) [2]: 38 % of DMSO control; Luciferase 5B/3B (% of DMSO control 5B)/(% of DMSO control 3B) [2]: 40 (% of DMSO control 5B)/(% of D; TNFα Secretion (% of DMSO control) [3]: 45 % of DMSO control

How did the “Luciferase 5B (% of DMSO control)” value [2] turn out when `CC(=NNC(=N)N)c1cccc(C(=O)N[C@@H](CC(C)C)C(=O)N2CCN(C(=O)[C@H](Cc3ccccc3)NC(=O)c3ccc(C(=O)c4ccccc4)cc3)CC2)c1.O=C(O)C(F)(F)F` [MES 10173, (4-E)-Guanylhydrazone of 1-[(S)-N-(4-benzoylbenzoyl)-2-amino-3-phenylpropanoyl]-4-[(2S)-N-(3-acetylbenzoyl)-2-amino-4-methylpentanoyl]-piperazine trifluoroaceteate] was run?
The value was 26 % of DMSO control.

What about the “TNFα Secretion (% of DMSO control)” value [3] of the same compound?
The value was 42 % of DMSO control.

With `CC(C)C[C@H](NC(=O)c1ccc(C(=O)c2ccccc2)cc1)C(=O)N1CCN(C(=O)CCC(=O)N2CCN(c3ccccc3)CC2)CC1` [MES 10230] as the compound, how does the “Luciferase 5B (% of DMSO control)” value [2] read?
Its value is 41 % of DMSO control.

What about the “Luciferase 5B/3B (% of DMSO control 5B)/(% of DMSO control 3B)” value [2] of the same compound?
Its value is 52 (% of DMSO control 5B)/(% of D.

And the “TNFα Secretion (% of DMSO control)” value [3]?
The value was 77 % of DMSO control.

For `CC(C)CC(NC(=O)c1ccc(C(=NNC(=N)N)c2ccccc2)cc1)C(=O)N1CCN(C(=O)C(Cc2ccccc2)NC(=O)c2ccccc2)CC1` (mixture of isomers) [MES 10231], which “Luciferase 5B (% of DMSO control)” value [2] is on record?
The value was 34 % of DMSO control.

And the “Luciferase 5B/3B (% of DMSO control 5B)/(% of DMSO control 3B)” value [2]?
Its value is 33 (% of DMSO control 5B)/(% of D.

What about the “TNFα Secretion (% of DMSO control)” value [3] of the same compound?
Its value is 49 % of DMSO control.

For `CC(C)CC(NC(=O)c1ccc(C(=NNC(=N)N)c2ccccc2)cc1)C(=O)N1CCN(C(=O)C(Cc2ccc(F)cc2)NC(=O)c2ccc(C(=NNC(=N)N)c3ccccc3)cc2)CC1` (mixture of isomers) [MES 10236], which “Luciferase 5B (% of DMSO control)” value [2] is on record?
Its value is 18 % of DMSO control.

What about the “Luciferase 5B/3B (% of DMSO control 5B)/(% of DMSO control 3B)” value [2] of the same compound?
The value was 25 (% of DMSO control 5B)/(% of DMSO control 3B).

What about the “TNFα Secretion (% of DMSO control)” value [3] of the same compound?
Its value is 34 % of DMSO control.

`CC(C)CC(NC(=O)c1ccc(C(=NN=C(N)N)c2ccccc2)cc1)C(=O)NCCCNC(=O)C(Cc1ccccc1)NC(=O)c1ccc(C(=NN=C(N)N)c2ccccc2)cc1` (mixture of isomers) [MES 11561] was tested. Which “effect on luciferase activity in the 5B cell line (luciferase assay), in words” value [2] did it give?
The value was “decrease TNFα secretion; also recorded: greatest inhibition”.

And the “Luciferase 5B (% of DMSO control)” value [2]?
The value was 24 % of DMSO control.

What about the “Luciferase 5B/3B (% of DMSO control 5B)/(% of DMSO control 3B)” value [2] of the same compound?
The value was 26 (% of DMSO control 5B)/(% of D.

And the “TNFα Secretion (% of DMSO control)” value [3]?
The value was 41 % of DMSO control.

What about the “effect on amount of secreted TNFα (direct TNFα secretion assay), in words” value [3] of the same compound?
The value was “decreased the amount of secreted TNFα”.
